Test results as given in patent US12240862B2, “Inhibitors of peptidylarginine deiminases” (Gilead Sciences, Inc., priority 2020, dated 2025).

Each compound was assayed against T1, human PAD4 (Homo sapiens, UniProt Q9UM07) (assay: In vitro PAD4 BAEE biochemical assay). Conditions: human PAD4, BAEE substrate; 5 nM PAD4, 2 mM calcium chloride, 3 mM BAEE; geometric mean of multiple experiments.
T1 construct: human PAD4 (NM_012387), A2P663, was PCR amplified; His-SUMO (N, cleaved yes); made in house; host or cells: E. coli BL21(DE3)
Method in brief: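 Tag-free recombinant hPAD4 (5 nM), 2 mM CaCl2, 3 mM BAEE, 50 mM MOPS pH 7.6, 2 mM DTT; 30 min compound preincubation, 2 h reaction, all 25 °C. EDTA quench; ammonia read via o-phthalaldehyde amine coupling, 1 h.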

T1 sequence (Q9UM07 2-663): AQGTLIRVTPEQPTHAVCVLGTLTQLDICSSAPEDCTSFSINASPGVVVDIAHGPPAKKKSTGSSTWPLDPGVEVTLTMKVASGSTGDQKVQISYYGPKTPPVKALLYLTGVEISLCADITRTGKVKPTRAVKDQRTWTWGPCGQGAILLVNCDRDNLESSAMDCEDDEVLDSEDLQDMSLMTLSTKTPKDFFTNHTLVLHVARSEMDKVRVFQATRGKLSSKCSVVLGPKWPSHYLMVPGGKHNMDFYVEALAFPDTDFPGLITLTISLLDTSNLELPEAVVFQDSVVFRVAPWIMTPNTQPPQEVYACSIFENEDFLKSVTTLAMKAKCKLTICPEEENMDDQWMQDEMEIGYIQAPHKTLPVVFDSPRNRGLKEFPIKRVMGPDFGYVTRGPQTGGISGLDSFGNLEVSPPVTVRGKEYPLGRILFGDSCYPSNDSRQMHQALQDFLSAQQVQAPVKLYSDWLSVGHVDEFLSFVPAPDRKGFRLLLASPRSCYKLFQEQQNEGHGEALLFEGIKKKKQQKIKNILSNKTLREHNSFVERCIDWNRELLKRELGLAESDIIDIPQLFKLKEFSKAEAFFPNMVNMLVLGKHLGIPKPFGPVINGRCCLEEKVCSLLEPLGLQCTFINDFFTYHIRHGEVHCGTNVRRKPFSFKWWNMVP

Compound | IC50
COc1cc(C(=O)N2[C@H]3CC[C@@H]2[C@H](N)C3)cc2nc(-c3cc4ccc([C@@H](C)NC(=O)N5CCN(C)CC5)nc4n3CC3CC3)c(C)n12 [Example 235, ~{N}-[(1~{R})-1-[2-[7-[(1~{R},2~{R},4~{S})-2-amino-7-azabicyclo[2.2.1]heptane-7-carbonyl]-5-methoxy-3-methylimidazo [1,2-a]pyridin-2-yl]-1-(cyclopropylmethyl)pyrrolo [2,3-b]pyridin-6-yl]ethyl]-4-methylpiperazine-1-carboxamide] | 63.6 nM
COc1cc(C(=O)N2CCC[C@@H](N)C2)cc2nc(-c3cc4ccc([C@@H](C)NC(=O)[C@H]5[C@@H]6CC(F)(F)C[C@@H]65)nc4n3CC3CC3)c(C)n12 [Example 9, (1~{R},5~{S})-~{N}-[(1~{R})-1-[2-[7-[(3~{R})-3-aminopiperidine-1-carbonyl]-5-methoxy-3-methylimidazo[1,2-a]pyridin-2-yl]-1-(cyclopropylmethyl)pyrrolo[2,3-b]pyridin-6-yl]ethyl]-3,3-difluorobicyclo[3.1.0] hexane-6-carboxamide] | 28 nM
COc1cc(C(=O)N2[C@H]3CC[C@@H]2[C@H](N)C3)cc2nc(-c3cc4ccc([C@@H](C)NC(=O)C5(C)CCOCC5)nc4n3CC3CC3)c(C)n12 [Example 135, ~{N}-[(1~{R})-1-[2-[7-[(1~{R},2~{R},4~{S})-2-amino-7-azabicyclo[2.2.1]heptane-7-carbonyl]-5-methoxy-3-methylimidazo [1,2-a]pyridin-2-yl]-1-(cyclopropylmethyl)pyrrolo [2,3-b]pyridin-6-yl]ethyl]-4-methyloxane-4-carboxamide] | 106 nM
COc1cc(C(=O)N2[C@H]3CC[C@@H]2[C@H](N)C3)cc2nc(-c3cc4ccc([C@@H](C)NC(C)=O)nc4n3CC3CC3)c(C)n12 [Example 179, ~{N}-[(1~{R})-1-[2-[7-[(1~{R},2~{R},4~{S})-2-amino-7-azabicyclo[2.2.1]heptane-7-carbonyl]-5-methoxy-3-methylimidazo [1,2-a]pyridin-2-yl]-1-(cyclopropylmethyl)pyrrolo [2,3-b]pyridin-6-yl]ethyl] acetamide] | 85 nM
CC(=O)NCc1c(-c2cc3ccc(N(C(F)F)S(C)(=O)=O)nc3n2CC2CC2)nc2cc(C(=O)N3CCC[C@@H](N)C3)ccn12 [Example 437, ~{N}-[[7-[(3~{R})-3-aminopiperidine-1-carbonyl]-2-[1-(cyclopropylmethyl)-6-[difluoromethyl (methylsulfonyl)amino]pyrrolo[2,3-b]pyridin-2-yl]imidazo[1,2-a]pyridin-3-yl]methyl]acetamide] | 550 nM
COc1cc(C(=O)N2[C@H]3CC[C@@H]2[C@H](N)C3)cc2nc(-c3cc4ccc([C@@H](C)NC(=O)N5CCC5)nc4n3CC3CC3)c(C)n12 [Example 247] | 70 nM
COc1cc(C(=O)N2[C@H]3CC[C@@H]2[C@H](N)C3)cc2nc(-c3cc4ccc([C@@H](C)NC(=O)CCS(C)(=O)=O)nc4n3CC3CC3)c(C)n12 [Example 153, ~{N}-[(1~{R})-1-[2-[7-[(1~{R},2~{R},4~{S})-2-amino-7-azabicyclo[2.2.1]heptane-7-carbonyl]-5-methoxy-3-methylimidazo [1,2-a]pyridin-2-yl]-1-(cyclopropylmethyl)pyrrolo [2,3-b]pyridin-6-yl]ethyl]-3-methylsulfonylpropanamide] | 68.7 nM
CCc1c(-c2cc3ccc(N(C(F)F)S(C)(=O)=O)nc3n2CC2CC2)nc2cc(C(=O)N3C[C@H](N)CC[C@@H]3C)ccn12 [Example 406, ~{N}-[2-[7-[(2~{S},5~{R})-5-amino-2-methylpiperidine-1-carbonyl]-3-ethylimidazo [1,2-a]pyridin-2-yl]-1-(cyclopropylmethyl)pyrrolo [2,3-b]pyridin-6-yl]-~{N}-(difluoromethyl) methanesulfonamide] | 194 nM
COc1cc(C(=O)N2[C@H]3CC[C@@H]2[C@H](N)C3)cc2nc(-c3cc4ccc([C@@H](C)NC(=O)N5C[C@@H](F)[C@@H](F)C5)nc4n3CC3CC3)c(C)n12 [Example 245, (3~{R},4~{S})-~{N}-[(1~{R})-1-[2-[7-[(1~{R},2~{R},4~{S})-2-amino-7-azabicyclo [2.2.1]heptane-7-carbonyl]-5-methoxy-3-methylimidazo [1,2-a]pyridin-2-yl]-1-(cyclopropylmethyl)pyrrolo [2,3-b]pyridin-6-yl]ethyl]-3,4-difluoropyrrolidine-1-carboxamide] | 62.2 nM
COc1cc(C(=O)N2[C@H]3CC[C@@H]2[C@H](N)C3)cc2nc(-c3cc4ccc([C@@H](C)NC(=O)Nc5c(C)cccc5C)nc4n3CC3CC3)c(C)n12 [Example 238, 1-[(1~{R})-1-[2-[7-[(1~{R},2~{R},4~{S})-2-amino-7-azabicyclo[2.2.1]heptane-7-carbonyl]-5-methoxy-3-methylimidazo [1,2-a]pyridin-2-yl]-1-(cyclopropylmethyl)pyrrolo [2,3-b]pyridin-6-yl]ethyl]-3-(2,6-dimethylphenyl)urea] | 145 nM
COc1cc(C(=O)N2[C@@H]3CC[C@@H](N)[C@H]2CC3)cc2nc(-c3cc4ccc([C@@H](C)NC(=O)C(C)(C)C)nc4n3CC3CC3)c(C)n12 [Example 170, ~{N}-[(1~{R})-1-[2-[7-[(1~{R},2~{R},5~{R})-2-amino-8-azabicyclo[3.2.1]octane-8-carbonyl]-5-methoxy-3-methylimidazo [1,2-a]pyridin-2-yl]-1-(cyclopropylmethyl)pyrrolo [2,3-b]pyridin-6-yl]ethyl]-2,2-dimethylpropanamide] | 161 nM
COc1cc(C(=O)N2[C@H]3CC[C@@H]2[C@H](N)C3)cc2nc(-c3cc4ccc([C@@H](C)NC(=O)c5ccnc(C(F)F)c5)nc4n3CC3CC3)c(C)n12 [Example 50, ~{N}-[(1~{R})-1-[2-[7-[(1~{R},2~{R},4~{S})-2-amino-7-azabicyclo[2.2.1]heptane-7-carbonyl]-5-methoxy-3-methylimidazo [1,2-a]pyridin-2-yl]-1-(cyclopropylmethyl)pyrrolo[2,3-b]pyridin-6-yl]ethyl]-2-(difluoromethyl)pyridine-4-carboxamide] | 30.6 nM
COc1cc(C(=O)N2[C@H]3CC[C@@H]2[C@H](N)C3)cc2nc(-c3cc4ccc([C@@H](C)NC(=O)N5CC(O)(C(F)(F)F)C5)nc4n3CC3CC3)c(C)n12 [Example 197, ~{N}-[(1~{R})-1-[2-[7-[(1~{R},2~{R},4~{S})-2-amino-7-azabicyclo[2.2.1]heptane-7-carbonyl]-5-methoxy-3-methylimidazo [1,2-a]pyridin-2-yl]-1-(cyclopropylmethyl)pyrrolo [2,3-b]pyridin-6-yl]ethyl]-3-hydroxy-3-(trifluoromethyl)azetidine-1-carboxamide] | 41.3 nM

The next lines start with the values.

IC50 | Compound
305 nM | COc1cc(C(=O)N2CCC[C@@H](N)C2)cc2nc(-c3cc4ccc([C@@H](C)CC(=O)N(C)C)nc4n3CC3CC3)c(C)n12 [Example 535, (3~{S})-3-[2-[7-[(3~{R})-3-aminopiperidine-1-carbonyl]-5-methoxy-3-methylimidazo[1,2-a]pyridin-2-yl]-1-(cyclopropylmethyl)pyrrolo [2,3-b]pyridin-6-yl]-~{N},~{N}-dimethylbutanamide]
4630 nM | COc1cc(C(=O)N2C[C@H](N)CC[C@@H]2C)cc2nc(-c3cc4ccc(C#N)nc4n3CC3CC3)c(C)n12 [Example 610, 2-[7-[(2~{S},5~{R})-5-amino-2-methylpiperidine-1-carbonyl]-5-methoxy-3-methylimidazo[1,2-a]pyridin-2-yl]-1-(cyclopropylmethyl) pyrrolo[2,3-b] pyridine-6-carbonitrile]
52.2 nM | COc1cc(C(=O)N2[C@H]3CC[C@@H]2[C@H](N)C3)cc2nc(-c3cc4ccc(N5CCCC6(CC6)S5(=O)=O)nc4n3CC3CC3)c(C)n12 [Example 457, [(1~{R},2~{R},4~{S})-2-amino-7-azabicyclo [2.2.1]heptan-7-yl]-[2-[1-(cyclopropylmethyl)-6-(4,4-dioxo-4$l^6-thia-5-azaspiro[2.5]octan-5-yl)pyrrolo[2,3-b]pyridin-2-yl]-5-methoxy-3-methylimidazo[1,2-a]pyridin-7-yl]methanone]
140 nM | COc1cc(C(=O)N2CCC[C@@H](N)C2)cc2nc(-c3cc4ccc([C@H](C)CC(=O)N(C)C)nc4n3CC3CC3)c(C)n12 [Example 534, (3~{R})-3-[2-[7-[(3~{R})-3-aminopiperidine-1-carbonyl]-5-methoxy-3-methylimidazo[1,2-a]pyridin-2-yl]-1-(cyclopropylmethyl)pyrrolo[2,3-b]pyridin-6-yl]-~{N},~{N}-dimethylbutanamide]
686 nM | COc1cc(C(=O)N2CCC[C@@H](N)C2)cc2nc(-c3cc4ccc(O[C@H](C)C(=O)N(C)C)nc4n3CC3CC3)c(C)n12 [Example 619, (2~{R})-2-[2-[7-[(3~{R})-3-aminopiperidine-1-carbonyl]-5-methoxy-3-methylimidazo [1,2-a]pyridin-2-yl]-1-(cyclopropylmethyl)pyrrolo [2,3-b]pyridin-6-yl]oxy-~{N},~{N}-dimethylpropanamide]
152 nM | COc1cc(C(=O)N2C[C@H](N)CC[C@@H]2C)cc2nc(-c3cc4ccc(N(C)S(C)(=O)=O)nc4n3CC3CC3)c(C)n12 [Example 481, N-(2-(7-((2S,5R)-5-amino-2-methylpiperidine-1-carbonyl)-5-methoxy-3-methylimidazo[1,2-a]pyridin-2-yl)-1-(cyclopropylmethyl)-1H-pyrrolo[2,3-b]pyridin-6-yl)-N-methylmethanesulfonamide]
114 nM | COc1cc(C(=O)N2[C@H]3CC[C@@H]2[C@H](N)C3)cc2nc(-c3cc4ccc(-c5cccnc5-c5cncs5)nc4n3CC3CC3)c(C)n12 [Example 567, [(1~{R},2~{R},4~{S})-2-amino-7-azabicyclo [2.2.1]heptan-7-yl]-[2-[1-(cyclopropylmethyl)-6-[2-(1,3-thiazol-5-yl)pyridin-3-yl]pyrrolo[2,3-b]pyridin-2-yl]-5-methoxy-3-methylimidazo[1,2-a]pyridin-7-yl]methanone]
